Measured values taken from patent publication US9447377B2, “Endodermal cells from pluripotent cells” (priority 2011, dated 2016).

Assays:
Format in all cases: cell-based, murine
[1] = test system: wt ES cells; experiment: Differentiation of wt ES cells towards Sox17+ cells under PPP chemical inhibition, immunofluorescence analysis; details: immunofluorescence with anti-Sox17 antibody; serum-free KSR neural differentiation medium
Description: (§1) Wt murine or with a deletion of the gene coding for G6PD (G6pdΔ) embryonic stem (ES) cells have been differentiated following the method described in Fico et al. (Fico A et al., Stem Cells Dev 2008). Briefly, 48 h before the induction of the differentiation, the ES cells have been plated onto pre-gelatinized plates. On day 0, the cells have been dissociated, thus obtaining a single cell suspension, which have subsequently been plated onto gelatinized plates at a density of 1.500 cells/cm2. During the differentiation process, the culture medium has been changed every other day for the first 6 days, then daily. The culture medium used consists in the medium free from integrated Knockout Serum Replacement (KSR) serum, and contains knockout Dulbecco minimal essential medium, integrated with 15% KSR (Invitrogen), 2 mM glutamine, 100 U/ml penicillin/streptomycin, and 0.1 mM β-mercaptoethanol.
From 6 days of differentiation, the expression profiles of markers of undifferentiated cells and specific markers for the three germ layers have been analyzed by RT-PCR. The expression of Oct4 and Nanog, markers of undifferentiated ES cells, is detectable in both cell lines (FIG. 1A). […]

[2] = test system: wt ES cells; experiment: Differentiation of wt ES cells in the presence of D-(−)-ribose; details: 10 neural differentiation days
Description: as §1, with “[…]Δ)” for “(G6pdΔ)”, “β-mercaptoethanol. Heterozygous knock-out ES Pdg+/- cells for the phosphogluconate dehydrogenase (PDG) enzyme, the second enzyme present in the PPP, were exposed to the above-described differentiation procedure. These cells have reduced Pdg mRNA levels, and are not sensitive to oxidative stress. […] Furthermore, […]Δ cells were exposed to the same differentiation procedure, but in the presence of D-(-)-ribose. […]” for “β-mercaptoethanol.”

[3] = test system: G6pdΔ cells; experiment: Quantitative (real-time) PCR of Sox17 mRNA in G6pdΔ cells differentiated in the presence of D-(−)-ribose; details: normalized to GAPDH, 10 neural differentiation days in the presence of D-(−)-ribose
Description: as §1, with “FIG. 2: (A) RT-PCR analysis of the expression of different specific differentiation markers in wt and Pgd+/- cells on neural differentiation days 8 and 10. (B) QRT-PCR analysis of Sox17 expression in wt ES e […]Δ cells after 10 neural differentiation days in the presence of D-(-)-ribose. Wt” for “Wt”, “[…]Δ)” for “(G6pdΔ)”, “β-mercaptoethanol. Heterozygous knock-out ES Pdg+/- cells for the phosphogluconate dehydrogenase (PDG) enzyme, the second enzyme present in the PPP, were exposed to the above-described differentiation procedure. […]” for “β-mercaptoethanol.”

[4] = test system: G6pdΔ cells; experiment: Differentiation of G6pdΔ cells towards pancreatic precursors, Real Time PCR of Pdx1 expression; details: G6pdΔ cells on differentiation day 8, 4 day exposure
Description: as §1
The real-time PCR analysis was carried out with a Biorad CFX 96 Real time System apparatus using a SYBR Green PCR Master Mix (Biorad) and the protocol recommended by the manufacturer. The relative expression of the various genes was normalized by using GAPDH as the gene standard. The used oligos were:
G6pdΔ cells on differentiation day 8, that are already expressing Sox17, are exposed to Indolactam V, an inducer of the differentiation of endoderm precursors towards pancreatic precursors. […]

NC(=O)c1ccc(N)nc1 [AN, 6-aminonicotinamide] was tested, and the “induction of differentiation of wt ES cells towards Sox 17+ cells” value [1] was “capable of inducing the differentiation of wt ES cells towards Sox 17+ cells”.

For O=C[C@H](O)[C@H](O)[C@H](O)CO [D-(−)-ribose], the “variation in the differentiation of wt ES cells” value [2] was “does not lead to any variation in the differentiation of wt ES cells” and the “Sox17 mRNA levels in G6pdΔ cells” value [3] was “a reduction in Sox17 mRNA levels”.

For C[C@]12CC[C@H](O)CC1=CC[C@@H]1[C@@H]2CC[C@]2(C)C(=O)CC[C@@H]12 [DHEA, dehydroepiandrosterone], the “induction of differentiation of wt ES cells towards Sox 17+ cells” value [1] was “capable of inducing the differentiation of wt ES cells towards Sox 17+ cells”.

For CC(C)[C@H]1C(=O)N[C@H](CO)Cc2c[nH]c3cccc(c23)N1C [Indolactam V], the “increase in the Pdx1 expression levels compared to control cells” value [4] was “about 2.5 times”.
